Measurements from US20230087351A1, “METHYL 2-ALLYL-1 -METHYL-3-OXOINDOLINE-2-C[…] 9A-ALLYL-1,2,3,9A-TETRAHYDRO- 9H-PYRROLO[1,2-A]INDOL-9-ONE DERIVATIVES AND RELATED COMPOUNDS FOR USE AS F[…] FOR LABELLING OF DRUGS, AMINO ACIDS AN PROTEINS” (UNIVERSITY OF SALFORD, priority 2019, published 2023).

Tests used:
μ-opioid receptors = μ-opioid receptors (Homo sapiens, UniProt P35372); settings: relative to morphine; cited from earlier work
δ-opioid receptors = δ-opioid receptors (Homo sapiens, UniProt P41143); settings: relative to morphine; cited from earlier work
Chain of δ-opioid receptors (P41143 whole entry): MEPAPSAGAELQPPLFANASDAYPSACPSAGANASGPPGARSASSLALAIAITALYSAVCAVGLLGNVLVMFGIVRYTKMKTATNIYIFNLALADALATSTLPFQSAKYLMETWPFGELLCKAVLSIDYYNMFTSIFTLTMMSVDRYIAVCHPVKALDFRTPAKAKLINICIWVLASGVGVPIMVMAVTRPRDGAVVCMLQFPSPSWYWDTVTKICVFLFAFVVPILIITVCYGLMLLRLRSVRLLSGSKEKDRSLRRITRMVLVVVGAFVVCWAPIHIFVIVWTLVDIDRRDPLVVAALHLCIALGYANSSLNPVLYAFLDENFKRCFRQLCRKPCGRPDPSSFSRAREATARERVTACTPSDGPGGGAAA

Chain of μ-opioid receptors (P35372 whole entry): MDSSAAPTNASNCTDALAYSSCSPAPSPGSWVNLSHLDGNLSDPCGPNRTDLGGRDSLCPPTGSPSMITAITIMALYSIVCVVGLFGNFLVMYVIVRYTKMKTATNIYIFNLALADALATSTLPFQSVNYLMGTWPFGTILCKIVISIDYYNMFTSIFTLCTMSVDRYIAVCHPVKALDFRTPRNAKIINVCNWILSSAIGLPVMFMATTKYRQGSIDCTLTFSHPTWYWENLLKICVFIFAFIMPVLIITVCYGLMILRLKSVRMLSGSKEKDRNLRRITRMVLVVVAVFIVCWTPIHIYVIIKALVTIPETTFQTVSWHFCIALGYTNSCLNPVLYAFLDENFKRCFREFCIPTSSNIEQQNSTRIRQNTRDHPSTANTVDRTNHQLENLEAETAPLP

Structure (SMILES) | melting point | higher potency than morphine at μ-opioid receptors (μ-opioid receptors) | higher potency than morphine at δ-opioid receptors (δ-opioid receptors)
C=CCC1(C(=O)OC)C(=O)c2cc(OC)ccc2N1C (stereo not drawn) | 99 to 101 °C | – | –
C=CCC1(C(=O)OC)C(=O)c2ccccc2N1C (stereo not drawn) | 90 to 93 °C | – | –
C=CCC1(C(=O)OC)C(=O)c2c(C)cccc2N1C (stereo not drawn) | 98 to 100 °C | – | –
C=CC(C)C1(C(=O)OC)C(=O)c2c(OC)cccc2N1C (stereo not drawn) | 89 to 91 °C | – | –
C=CCC1(C(=O)OC)C(=O)c2c(OC)cccc2N1C (stereo not drawn) | 125 to 127 °C | – | –
CC[C@@H]1CN2CC[C@]3(Nc4cccc(OC)c4C3=O)[C@@H]2C[C@@H]1/C(=C\OC)C(=O)OC [mitrogynine pseudoindoxyl] | – | 20 fold | 35 fold
C=CCC1(C(=O)OC)C(=O)c2c(ccc3ccccc23)N1C (stereo not drawn) | 144 to 147 °C | – | –
C=CC(C)(C)C1(C(=O)OC)C(=O)c2c(OC)cccc2N1C (stereo not drawn) | 86 to 88 °C | – | –
